# Test results: patent USRE42013E1, “Macrocyclic modulators of the ghrelin receptor” (Tranzyme Pharma Inc., priority 2003, dated 2010)
# Target: T1, human growth hormone secretagogue receptor (hGHS-R1a) (Homo sapiens, UniProt Q92847)
# T1 construct: purchased PerkinElmer BioSignal #RBHGHSM, lot#1887; host or cells: HEK-293, stably transfected
# Experiment: Competitive radioligand binding assay (ghrelin receptor), [125I]-ghrelin displacement
# Conditions: Table 3B; binding at human ghrelin receptor, [125I]-ghrelin displacement; read-out: Ki
# Description: The competitive binding assay at the human growth hormone secretagogue receptor (hGHS-R1a) was carried out analogously to assays described in the literature.
# Multiscreen Harvest plates-GF/C (Millipore, #MAHFC1H60) • 4. […] Bottom seal (Millipore, #MATAH0P00) • 7. […] Binding Buffer: 25 mM Hepes (pH 7.4), 1 mM CaCl2, 5 mM MgCl2, 2.5 mM EDTA, 0.4% BSA Assay Volumes
# Competition experiments were performed in a 300 μl filtration assay format. • 1. 220 μL of membranes diluted in binding buffer • 2. 40 μL of compound diluted in binding buffer • 3. […] Compound Handling
# Compounds were provided frozen on dry ice at a stock concentration of 10 mM diluted in 100% DMSO and stored at −80° C. until the day of testing. On the test day, compounds were allowed to thaw at rt O/N and then diluted in assay buffer according to the desired test concentrations.
# Plates were sealed with TopSeal-A, vortexed gently and incubated at rt for 30 min. The reaction was arrested by filtering samples through Multiscreen Harvest plates (pre-soaked in 0.5% polyethyleneimine) using a Tomtec Harvester, washed 9 times with 500 μL of cold 50 mM Tris-HCl (pH 7.4, 4° C.), and then plates were air-dried in a fumehood for 30 min. A bottom seal was applied to the plates prior to the addition of 25 μL of MicroScint-0 to each well. […] Results were expressed as counts per minute (cpm).
# Data were analyzed by GraphPad Prism (GraphPad Software, San Diego, Calif.) using a variable slope non-linear regression analysis.
# Compound structures for Tables 3A, 3B and 3D are presented with the various groups as defined for the general structure of formula I. For Tables 3B and 3D, in all entries, m, n and p are 0; X, Z1 and Z2 are each NH. For Table 3B, R1 is H for all entries. The tethers (T) are illustrated with the bonding to X and Z2 as indicated. The compounds themselves are shown for Table 3C.
# • 1. […] Key Aspects of Method • 1. […] Results
# T1 sequence (Q92847 whole entry): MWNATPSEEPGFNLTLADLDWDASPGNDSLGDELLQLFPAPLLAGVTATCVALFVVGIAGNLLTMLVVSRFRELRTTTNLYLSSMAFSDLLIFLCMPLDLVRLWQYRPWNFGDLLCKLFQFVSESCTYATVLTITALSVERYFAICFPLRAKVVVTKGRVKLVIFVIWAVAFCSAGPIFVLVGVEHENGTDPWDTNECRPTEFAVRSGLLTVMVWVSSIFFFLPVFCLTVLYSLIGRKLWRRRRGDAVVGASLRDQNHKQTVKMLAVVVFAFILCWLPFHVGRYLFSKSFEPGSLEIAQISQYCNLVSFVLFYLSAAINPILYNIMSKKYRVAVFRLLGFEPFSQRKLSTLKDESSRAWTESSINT
row,Compound,Ki [µM]
1,C[C@@H]1C(=O)N[C@H](Cc2ccc(O)c(C(C)(C)C)c2)C(=O)NCCCc2ccccc2OCCN[C@@H](C2CC2)C(=O)N1C [compound 311],< 0.1
2,CC1C(=O)NC(Cc2ccc(F)cc2)C(=O)NCCC=CCOCCNC(C2CC2)C(=O)N1C (centres unmarked) [compound 307],0.1 to 10

# Results, then the compound that gave them:
row,Ki [µM],Compound
1,0.1 to 10,CCC(C)C1NCCOc2ccc(Cl)cc2CCCNC(=O)C(Cc2cccc(Cl)c2)NC(=O)C2(CCCC2)NC1=O (centres unmarked) [compound 384]
2,0.1 to 10,CCC(C)C1NCCOCCCCCNC(=O)C(Cc2cccc(Cl)c2)NC(=O)C2(CCCC2)NC1=O (centres unmarked) [compound 370]
3,0.1 to 10,CCC(C)C1NCCOCCOCCNC(=O)C(Cc2cccc(Cl)c2)NC(=O)C2(CCCC2)NC1=O (centres unmarked) [compound 393]
4,0.1 to 10,CCC(C)C1NCCOCC=CCCNC(=O)C(Cc2cccc(Cl)c2)NC(=O)C2(CCCC2)NC1=O (centres unmarked) [compound 360]
5,0.1 to 10,N#Cc1ccccc1CC1NCCOc2ccccc2C=CCNC(=O)C(Cc2cccc(Cl)c2)NC(=O)C2(CCCC2)NC1=O (centres unmarked) [compound 342]
6,0.1 to 10,CC1CNC(=O)C(Cc2ccc(F)cc2)NC(=O)C(C)N(C)C(=O)C(C2CC2)NCCOc2ccccc2C1 (centres unmarked) [compound 376]
7,0.1 to 10,CC1C(=O)NC(Cc2ccc(F)cc2)C(=O)NCCCCCOCCNC(C2CC2)C(=O)N1C (centres unmarked) [compound 398]
8,0.1 to 10,CCC(C)C1NCCCc2ccccc2C=CCCNC(=O)C(Cc2cccc(Cl)c2)NC(=O)C2(CCCC2)NC1=O (centres unmarked) [compound 361]
9,0.1 to 10,CC1C(=O)NC(Cc2ccc(F)cc2)C(=O)NCCCc2cc(C(F)(F)F)ccc2OCCNC(C2CC2)C(=O)N1C (centres unmarked) [compound 356]
10,< 0.1,CC1C(=O)NC(Cc2ccc(F)cc2)C(=O)NCCCc2cc(Cl)ccc2OCCNC(C2CC2)C(=O)N1C (centres unmarked) [compound 373]
11,< 0.1,CCC(C)C1NCCOc2ccccc2C#CCNC(=O)C(Cc2cccc(Cl)c2)NC(=O)C2(CCCC2)NC1=O (centres unmarked) [compound 381]
12,0.1 to 10,CCC(C)C1NCCCCCCCCNC(=O)C(Cc2cccc(Cl)c2)NC(=O)C2(CCCC2)NC1=O (centres unmarked) [compound 363]
13,< 0.1,CCC(C)C1NCCOc2ccccc2C=CCNC(=O)C(Cc2cccc(C#N)c2)NC(=O)C2(CCCC2)NC1=O (centres unmarked) [compound 329]
14,0.1 to 10,CCC(C)C1NCCOc2ccccc2C=CCNC(=O)C(Cc2cccc(Cl)c2)NC(=O)C2(CCCC2)NC1=O (centres unmarked) [compound 380]
15,0.1 to 10,CC1CCNC(=O)C(Cc2ccc(F)cc2)NC(=O)C(C)N(C)C(=O)C(C2CC2)NCCOc2ccccc21 (centres unmarked) [compound 375]
16,< 0.1,CC1C(=O)NC(Cc2ccc(F)cc2)C(=O)NCC=Cc2ccccc2OCCNC(C2CC2)C(=O)N1C (centres unmarked) [compound 400]
17,< 0.1,COC(C)C1NCCOc2ccccc2CCCNC(=O)C(Cc2ccc(F)cc2)NC(=O)C(C)N(C)C1=O (centres unmarked) [compound 335]
18,0.1 to 10,CC1C(=O)NC(Cc2ccc(F)cc2)C(=O)NCCC(C)(C)c2ccccc2OCCNC(C2CC2)C(=O)N1C (centres unmarked) [compound 378]
19,< 0.1,CCC(C)C1NCCOc2ccccc2C=CCNC(=O)C(Cc2cccc(Br)c2)NC(=O)C2(CCCC2)NC1=O (centres unmarked) [compound 326]
20,0.1 to 10,CC1C(=O)NC(Cc2ccc(F)cc2)C(=O)NCCOc2cccc(c2)OCCNC(C2CC2)C(=O)N1C (centres unmarked) [compound 377]
21,0.1 to 10,CCC(C)C1NCCCCCCNC(=O)C(Cc2cccc(Cl)c2)NC(=O)C2(CCCC2)NC1=O (centres unmarked) [compound 365]

# Same assay, conditions: Table 3D; binding at human ghrelin receptor, [125I]-ghrelin displacement; read-out: Ki
row,Ki [µM],Compound
1,0.01 to 0.1,CC1CNC(C2CC2)C(=O)N(C)C(C)C(=O)NC(Cc2ccccc2)C(=O)NCCCc2ccc(F)cc2O1 (centres unmarked) [compound 435]
2,1 to 10,CC(C)CC1NCC(C)Oc2ccccc2CCCNC(=O)C(Cc2cccc(Cl)c2)NC(=O)C2(CCCC2)NC1=O (centres unmarked) [compound 438]

# Same assay, conditions: Table 3E; binding activity at the human ghrelin receptor, class symbols; read-out: Ki
row,Ki [µM],Compound
1,1 to 10,CC(C)C[C@@H]1NCCOc2ccccc2CCCNC(=O)[C@H](Cc2ccccc2)NC(=O)[C@H]2CCCN2C1=O [compound 223]

# Same assay, conditions: Table 4; binding at human ghrelin receptor; TFA salts unless otherwise noted; read-out: Ki
row,Ki [µM],Compound
1,0.1 to 1,CCC(C)C1NCCCCCCCCNC(=O)C(Cc2cccc(Cl)c2)NC(=O)C2(CCCC2)NC1=O (centres unmarked) [compound 363]
2,0.01 to 0.1,CCC(C)C1NCCOc2ccccc2CCCNC(=O)C(Cc2cccs2)NC(=O)C(C)N(C)C1=O (centres unmarked) [compound 34]

# Same assay, conditions: [125I]-ghrelin displacement, hGHS-R1a HEK-293 membranes; read-out: Binding Activity at the Human Ghrelin Receptor (Ki)
row,Ki [µM],Compound
1,0.01 to 0.1,CCC(C)C1NCCCc2ccccc2CCCNC(=O)C(Cc2ccccc2)NC(=O)C(C)N(C)C1=O (centres unmarked) [compound 190]
2,> 10,CCCC1C(=O)N(C)C(C)C(=O)NC(Cc2ccccc2)C(=O)NCCCc2ccccc2OCCN1C(C)=O (centres unmarked) [compound 202]
3,0.1 to 10,O=C1NC2(CCCC2)C(=O)NC(Cc2ccccc2)C(=O)NCC=Cc2ccccc2OCCNC1Cc1c[nH]cn1 (centres unmarked) [compound 219]
4,> 10,CCC(C)C1NCCCc2c(c(=O)n(C)c(=O)n2C)CCCNC(=O)C(Cc2ccccc2)NC(=O)C(C)N(C)C1=O (centres unmarked) [compound 206]
5,> 10,CCC(C)C1NCCOc2ccc(C(=N)N)cc2CCCNC(=O)C(Cc2ccccc2)NC(=O)C(C)N(C)C1=O (centres unmarked) [compound 196]
6,0.1 to 10,CCCC1C(=O)N(C)C(C)C(=O)NC(Cc2ccccc2)C(=O)NCCCc2ccccc2OCCN1C (centres unmarked) [compound 201]

# Same assay, conditions: binding activity at the human ghrelin receptor; [125I]-ghrelin displacement, hGHS-R1a/HEK-293 membranes; read-out: Ki
row,Ki [µM],Compound
1,0.1 to 10,CCCCC1NC(=O)C(CCCC)NC(=O)C(C(C)C)NCCOc2ccccc2C=CCNC1=O (centres unmarked) [compound 12]
2,> 10,O=C1NCC=Cc2ccccc2OCCNC(C(c2ccccc2)c2ccccc2)C(=O)NC2(CCCC2)C(=O)NC1Cc1ccccc1 (centres unmarked) [compound 129]
3,0.1 to 10,CCC(C)C1NCCOCC=CCNC(=O)C(Cc2ccccc2)NC(=O)C(C)N(C)C1=O (centres unmarked) [compound 185]
4,> 10,CC(C)CC1NCc2cccc(c2)CCNC(=O)C(Cc2ccccc2)NC(=O)C2(CCCC2)NC1=O (centres unmarked) [compound 107]
5,0.01 to 0.1,CCC(C)C1NCCOc2ccccc2CCCNC(=O)C(C(c2ccccc2)c2ccccc2)NC(=O)C(C)N(C)C1=O (centres unmarked) [compound 29]
6,0.01 to 0.1,CC(C)CC1NCCOc2ccccc2C=CCNC(=O)C(Cc2cccc3ccccc23)NC(=O)C2(CCCC2)NC1=O (centres unmarked) [compound 22]
7,0.1 to 10,CCCC1NCCOc2ccccc2CCCNC(=O)C(Cc2ccccc2)NC(=O)C(C)(C)NC1=O (centres unmarked) [compound 66]
8,0.1 to 10,O=C1NC2(CCCC2)C(=O)NC(Cc2ccccc2)C(=O)NCC=Cc2ccccc2OCCNC1Cc1cscn1 (centres unmarked) [compound 134]
9,> 10,"CCC(C)C1NCCOc2ccccc2CCCNC(=O)C(Cc2ccccc2)NC(=O)C(C(C)CC)N(C)C1=O (single isomer, unassigned) [150b]"
10,> 10,CCCC1NC(=O)C2(CCCC2)NC(=O)C(CC(C)C)NCCOc2ccccc2C=CCNC1=O (centres unmarked) [compound 48]
11,0.1 to 10,CCC(C)C1NCCCCc2ccccc2CCNC(=O)C(Cc2ccccc2)NC(=O)C(C)N(C)C1=O (centres unmarked) [compound 180]
12,> 10,CCC(C)C1NCCCCC=CCCNC(=O)C(Cc2ccccc2)NC(=O)C(C)N(C)C1=O (centres unmarked) [compound 183]
13,> 1,CCC(C)C1NCCc2ccccc2C=CCCNC(=O)C(Cc2ccccc2)NC(=O)C(C)N(C)C1=O (centres unmarked) [compound 188]
14,> 10,CC(C)CC1NCCOc2ccccc2C=CCNC(=O)C(Cc2cscn2)NC(=O)C2(CCCC2)NC1=O (centres unmarked) [compound 163]
15,> 10,CC(C)CC1NCCC#CCCNC(=O)C(Cc2ccccc2)NC(=O)C2(CCCC2)NC1=O (centres unmarked) [compound 106]
16,> 10,CC(C)CC1NCCOCCNC(=O)C(Cc2ccccc2)NC(=O)C2(CCCC2)NC1=O (centres unmarked) [compound 44]
17,0.01 to 0.1,CCC1NCCOc2ccccc2CCCNC(=O)C(Cc2ccccc2)NC(=O)C(C)N(C)C1=O (centres unmarked) [compound 117]
18,0.1 to 10,CCC(C)C1NCCCc2ccccc2CCNC(=O)C(Cc2ccccc2)NC(=O)C(C)N(C)C1=O (centres unmarked) [compound 179]
19,0.1 to 10,CCC[C@@H]1NCCOc2ccccc2CCCNC(=O)[C@@H](Cc2ccccc2)NC(=O)CN(CC)C1=O [compound 5]
20,0.1 to 10,CC(C)CC1NCCOc2ccccc2C=CCNC(=O)C2(CCCC2)NC(=O)C2(CCCC2)NC1=O (centres unmarked) [compound 168]
21,> 10,CCC(C)C1NCCCCC=CCNC(=O)C(Cc2ccccc2)NC(=O)C(C)N(C)C1=O (centres unmarked) [compound 181]
22,> 10,CC(C)CC1NCCOc2ccccc2CCCNC(=O)C(C)NC(=O)C2(CCCC2)NC1=O (centres unmarked) [compound 87]
23,1 to 10,CC(C)CC1NCCOc2cccnc2CCCNC(=O)C(Cc2ccccc2)NC(=O)C2(CCCC2)NC1=O (centres unmarked) [compound 109]
24,> 10,CCCC1NCCOc2ccccc2CCCNC(=O)C(Cc2ccccc2)NC(=O)C(CCCCN)NC1=O (centres unmarked) [compound 69]
25,0.01 to 0.1,CCC(C)C1NCCOc2ccccc2CCCNC(=O)C(Cc2cccs2)NC(=O)C(C)N(C)C1=O (centres unmarked) [compound 34]
26,0.1 to 10,CN1CC(=O)NC(Cc2ccccc2)C(=O)NCCCc2ccccc2OCCNC(Cc2ccccc2)C1=O (centres unmarked) [compound 75]
27,0.1 to 10,CCC(C)C1NCCc2ccccc2C=CCNC(=O)C(Cc2ccccc2)NC(=O)C(C)N(C)C1=O (centres unmarked) [compound 187]
28,> 10,CCCC1NCCOc2ccccc2CCCNC(=O)C(Cc2ccccc2)NC(=O)C(CCC(=O)O)NC1=O (centres unmarked) [compound 70]
